Measurements as given in US11718620B2, “Method for treating a cancer mediated by abnormality of multi-kinases” (TransThera Sciences (Nanjing), Inc., priority 2016, dated 2023).
pIC50: −log10 of the molar value.

Experiments:
Aurora A [1] = biological target: T1, Aurora A (Homo sapiens, UniProt O14965); test: Aurora A enzymatic activity test, FAM-labeled peptide, Caliper; format: biochemical; settings: FAM-labeled peptide substrate, read-out: Kinase-inhibiting activity IC50 Aurora A
T1 sequence (O14965 1-403): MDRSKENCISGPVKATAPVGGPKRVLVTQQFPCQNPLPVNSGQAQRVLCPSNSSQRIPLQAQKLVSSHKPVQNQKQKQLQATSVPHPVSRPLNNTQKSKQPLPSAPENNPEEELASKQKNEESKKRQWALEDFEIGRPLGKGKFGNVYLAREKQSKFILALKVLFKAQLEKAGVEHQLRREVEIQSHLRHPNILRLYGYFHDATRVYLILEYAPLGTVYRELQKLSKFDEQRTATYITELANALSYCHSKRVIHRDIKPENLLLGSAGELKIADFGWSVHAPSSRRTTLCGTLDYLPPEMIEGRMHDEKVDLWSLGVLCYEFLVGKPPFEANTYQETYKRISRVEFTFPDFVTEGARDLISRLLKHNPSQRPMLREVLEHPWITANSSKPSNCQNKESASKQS
Protocol: (§1) Test samples: Compounds in the present invention (the sequence numbers and structures thereof are shown in Table 1), dilution concentration: 0.03 μM-3 μM, a total of 10 concentration gradients.
(§2) Test method: enzymatic activity tests of Aurora kinase (including Aurora A and Aurora B) and VEGFR2 (KDR) were performed using a multi-function microplate reader.
(§3) a) 96-well plates, 10 dose groups, 3-fold serial dilutions, each well was added with DMSO, maximal concentration of 500 μM (50-fold compound).
(§4) b) 384-well plates, diluted with 1× kinase buffer (50 mM HEPES, pH 7.5; 0.0015% Brij-35; 2 mM DTT), each well containing 5× compound dissolved in 5 μL of 10% DMSO. Each well of the negative control contains 5 μL of 1× kinase buffer containing 10% DMSO.
(§5) Aurora A, Aurora B and KDR were dissolved in 1× kinase buffer and prepared as a 2.5× enzyme solution. After the compound in various concentrations was reacted with 2.5× enzyme solution at room temperature for 10 min, the FAM-labeled peptide substrate and ATP were added to initiate reaction. After incubation for 40 minutes, 25 μL of terminal solution (100 mM HEPES, pH 7.5; 0.015% Brij-35; 0.2% Coating Reagent #3; 50 mM EDTA) was added to stop the reaction, and the final data were read by Caliper.

Aurora B [2] = biological target: T2, Aurora B (Homo sapiens, UniProt Q96GD4); test: Aurora B enzymatic activity test, FAM-labeled peptide, Caliper; format: biochemical; settings: FAM-labeled peptide substrate, read-out: Kinase-inhibiting activity IC50 Aurora B
T2 sequence (Q96GD4 whole entry): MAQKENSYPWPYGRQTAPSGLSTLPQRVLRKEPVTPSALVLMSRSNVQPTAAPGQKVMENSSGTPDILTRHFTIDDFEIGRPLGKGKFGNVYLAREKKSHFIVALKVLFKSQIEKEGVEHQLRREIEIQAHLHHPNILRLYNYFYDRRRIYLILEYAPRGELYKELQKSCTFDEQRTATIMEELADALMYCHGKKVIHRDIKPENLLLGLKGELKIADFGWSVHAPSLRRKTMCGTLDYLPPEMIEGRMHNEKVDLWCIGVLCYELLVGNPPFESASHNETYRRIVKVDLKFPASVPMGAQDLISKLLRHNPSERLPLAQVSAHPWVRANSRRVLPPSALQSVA
Protocol: as §1, §2, §3, §4, §5

KDR(VEGFR2) [3] = biological target: T3, KDR(VEGFR2) (Homo sapiens, UniProt P35968); test: KDR enzymatic activity test, FAM-labeled peptide, Caliper; format: biochemical; settings: FAM-labeled peptide substrate, read-out: Kinase-inhibiting activity IC50 KDR(VEGFR2)
T3 sequence (P35968 20-1356): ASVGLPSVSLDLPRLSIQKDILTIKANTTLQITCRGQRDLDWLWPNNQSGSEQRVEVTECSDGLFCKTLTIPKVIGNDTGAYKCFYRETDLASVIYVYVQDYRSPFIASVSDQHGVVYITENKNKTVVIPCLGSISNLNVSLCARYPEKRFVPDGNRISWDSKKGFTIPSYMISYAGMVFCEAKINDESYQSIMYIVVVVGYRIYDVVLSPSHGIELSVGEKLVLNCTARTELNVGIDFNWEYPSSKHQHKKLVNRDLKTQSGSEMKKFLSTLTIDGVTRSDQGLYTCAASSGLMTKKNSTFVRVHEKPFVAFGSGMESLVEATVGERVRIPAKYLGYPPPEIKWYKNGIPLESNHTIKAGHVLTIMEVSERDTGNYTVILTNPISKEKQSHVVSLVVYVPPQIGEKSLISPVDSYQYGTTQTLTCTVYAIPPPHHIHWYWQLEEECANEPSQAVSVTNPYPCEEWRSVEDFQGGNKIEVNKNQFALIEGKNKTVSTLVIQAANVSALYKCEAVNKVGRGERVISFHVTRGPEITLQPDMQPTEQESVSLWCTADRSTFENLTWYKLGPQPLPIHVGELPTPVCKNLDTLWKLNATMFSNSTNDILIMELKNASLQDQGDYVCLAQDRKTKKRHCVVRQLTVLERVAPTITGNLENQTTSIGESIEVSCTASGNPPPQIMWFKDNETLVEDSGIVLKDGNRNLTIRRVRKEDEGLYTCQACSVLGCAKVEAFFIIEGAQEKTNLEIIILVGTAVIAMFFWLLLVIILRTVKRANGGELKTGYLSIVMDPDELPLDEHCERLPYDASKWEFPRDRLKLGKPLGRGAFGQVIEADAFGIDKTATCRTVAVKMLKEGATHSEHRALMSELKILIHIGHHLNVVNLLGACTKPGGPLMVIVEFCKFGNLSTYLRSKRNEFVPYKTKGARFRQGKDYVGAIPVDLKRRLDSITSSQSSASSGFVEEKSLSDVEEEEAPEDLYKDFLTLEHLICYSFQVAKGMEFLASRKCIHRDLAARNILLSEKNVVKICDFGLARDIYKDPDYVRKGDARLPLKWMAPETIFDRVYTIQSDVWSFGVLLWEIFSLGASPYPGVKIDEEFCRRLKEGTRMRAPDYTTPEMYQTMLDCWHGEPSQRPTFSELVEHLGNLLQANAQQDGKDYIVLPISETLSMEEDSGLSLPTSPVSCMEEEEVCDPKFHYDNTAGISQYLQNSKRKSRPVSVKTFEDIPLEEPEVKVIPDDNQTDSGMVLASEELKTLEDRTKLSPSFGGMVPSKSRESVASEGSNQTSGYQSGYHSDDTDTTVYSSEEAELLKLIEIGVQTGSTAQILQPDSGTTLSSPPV
Protocol: as §1, §2, §3, §4, §5

[4] = tested on: A2780 ovarian cancer cells; test: Cell proliferation, Cell Titer-Glo; format: cell-based; settings: Homo sapiens, 72 hours, read-out: Cellular inhibitory activity IC50 A2780
Protocol: (§6) Test method: The effect of compounds on cell proliferation of different cell lines was examined by Cell Titer-Glo method.
(§7) Each cell line was inoculated into a 96-well plate one day in advance, and after overnight incubation, drugs in different concentrations were added to a final concentration of 0-10000 nM, 3-5 folds dilution, for a total of 10 concentration points. After incubation for 72 hours, the mixture was added with Cell titer-Glo reagent equilibrated at room temperature, and shaken to incubation for 10 min, and then allowed to stand at room temperature for 2 min to stabilize the light signal. The multi-function microplate reader was used to read data from each well and analyze it.

A549 Lung cancer cells = test: Cell proliferation, Cell Titer-Glo; format: cell-based; settings: Homo sapiens, 72 hours, read-out: Cellular inhibitory activity IC50 A549
Protocol: as §6, §7

[5] = tested on: BT-549 breast cancer cells; test: Cell proliferation, Cell Titer-Glo; format: cell-based; settings: Homo sapiens, 72 hours, read-out: Cellular inhibitory activity IC50 BT-549
Protocol: as §6, §7

[6] = tested on: Caov-3 ovarian cancer cells; test: Cell proliferation, Cell Titer-Glo; format: cell-based; settings: Homo sapiens, 72 hours, read-out: Cellular inhibitory activity IC50 Caov-3
Protocol: as §6, §7

[7] = tested on: D4475 breast cancer cells; test: Cell proliferation, Cell Titer-Glo; format: cell-based; settings: 72 hours, read-out: Cellular inhibitory activity IC50 D4475
Protocol: as §6, §7

[8] = tested on: HCC1954 breast cancer cells; test: Cell proliferation, Cell Titer-Glo; format: cell-based; settings: Homo sapiens, 72 hours, read-out: Cellular inhibitory activity IC50 HCC1954
Protocol: as §6, §7

Hep3B liver cancer cells = test: Cell proliferation, Cell Titer-Glo; format: cell-based; settings: Homo sapiens, 72 hours, read-out: Cellular inhibitory activity IC50 Hep3B
Protocol: as §6, §7

KG-1 Leukemic cells = test: Cell proliferation, Cell Titer-Glo; format: cell-based; settings: 72 hours, read-out: Cellular inhibitory activity IC50 KG-1
Protocol: as §6, §7

Kasumi-1 Leukemic cells = test: Cell proliferation, Cell Titer-Glo; format: cell-based; settings: Homo sapiens, 72 hours, read-out: Cellular inhibitory activity IC50 Kasumi-1
Protocol: as §6, §7

[9] = tested on: OVCAR-3 ovarian cancer cells; test: Cell proliferation, Cell Titer-Glo; format: cell-based; settings: Homo sapiens, 72 hours, read-out: Cellular inhibitory activity IC50 OVCAR-3
Protocol: as §6, §7

[10] = tested on: OVCAR-8 ovarian cancer cells; test: Cell proliferation, Cell Titer-Glo; format: cell-based; settings: Homo sapiens, 72 hours, read-out: Cellular inhibitory activity IC50 OVCAR-8
Protocol: as §6, §7

[11] = tested on: TOV-112D ovarian cancer cells; test: Cell proliferation, Cell Titer-Glo; format: cell-based; settings: Homo sapiens, TOV112D, 72 hours, read-out: Cellular inhibitory activity IC50 TOV-112D
Protocol: as §6, §7

[12] = tested on: MDA-MB-468 breast cancer cells; test: Cell proliferation, Cell Titer-Glo; format: cell-based; settings: Homo sapiens, 72 hours, read-out: Cellular inhibitory activity IC50 MDA-MB-468
Protocol: as §6, §7

[13] = tested on: HCC38 breast cancer cells; test: Cell proliferation, Cell Titer-Glo; format: cell-based; settings: Homo sapiens, 72 hours, read-out: Cellular inhibitory activity IC50 HCC38
Protocol: as §6, §7

[14] = tested on: HCC70 breast cancer cells; test: Cell proliferation, Cell Titer-Glo; format: cell-based; settings: Homo sapiens, 72 hours, read-out: Cellular inhibitory activity IC50 HCC70
Protocol: as §6, §7

Aurora A [15] = biological target: T1, Aurora A; test: Aurora A kinase activity test, [γ-33P]-ATP filter membrane; format: biochemical; settings: 40 minutes at room temperature, read-out: Kinase-inhibiting activity IC50 Aurora A
Protocol: (§8) Test samples: compounds 1 to 4 in the present invention (the sequence numbers and structures thereof are shown in Table 1), dilution concentration: 0.03 μM-3 μM, a total of 10 concentration gradients.
as §2
(1) Test for Aurora a Kinase Activity:
Aurora A kinase protein and the compounds were sequentially added to the following reaction system: 8 mM MOPS pH 7.0, 0.2 mM EDTA, 200 μM LRRASLG (Kemptide), 10 mM magnesium acetate and [γ-^33P]-ATP (radioactive activity was approximately 500 cpm/pmol). Then the above reaction system was added with ATP to start the reaction, and incubated at room temperature for 40 minutes. Then the reaction was terminated by adding a 3% phosphoric acid solution. 10 μL was taken out from the reaction system, and then added dropwise to a P30 filtermat filter membrane, washed three times in 75 mM phosphoric acid solution for 5 minutes, and then washed once with methanol. After the filter membrane was dried, count was performed by a liquid crystal scintillation counter.

Aurora B [16] = biological target: T2, Aurora B; test: Aurora B kinase activity test, [γ-33P]-ATP filter membrane; format: biochemical; settings: 40 minutes at room temperature, read-out: Kinase-inhibiting activity IC50 Aurora B
Protocol: as §8, §2
(2) Test for Aurora B Kinase Activity:
Aurora B kinase protein and the compounds were sequentially added to the following reaction system: 8 mM MOPS pH 7.0, 0.2 mM EDTA, 30 μM […], 10 mM magnesium acetate and [γ-^33P]-ATP (radioactive activity was approximately 500 cpm/pmol). Then the above reaction system was added with ATP to start the reaction, and incubated at room temperature for 40 minutes. Then the reaction was terminated by adding a 3% phosphoric acid solution. 10 μL was taken out from the reaction system, and then added dropwise to a P30 filtermat filter membrane, washed three times in 75 mM phosphoric acid solution for 5 minutes, and then washed once with methanol. After the filter was dried, count was performed by a liquid crystal scintillation counter.

KDR(VEGFR2) [17] = biological target: T3, KDR(VEGFR2); test: KDR kinase activity test, [γ-33P]-ATP filter membrane; format: biochemical; settings: 40 minutes at room temperature, read-out: Kinase-inhibiting activity IC50 KDR (VEGFR2)
Protocol: as §8, §2
(3) Test for KDR Kinase Activity:
KDR kinase protein and the compounds were sequentially added to the following reaction system: 8 mM MOPS pH 7.0, 0.2 mM EDTA, 0.33 mg/mL myelin basic protein, 10 mM magnesium acetate and [γ-^33P]-ATP (radioactive activity was approximately 500 cpm/pmol). Then the above reaction system was added with ATP to start the reaction, and incubated at room temperature for 40 minutes. Then the reaction was terminated by adding a 3% phosphoric acid solution. 10 μL was taken out from the reaction system, and then added dropwise to a P30 filtermat filter membrane, washed three times in a 75 mM phosphoric acid solution for 5 minutes, and then washed once with methanol. After the filter was dried, count was performed by a liquid crystal scintillation counter.

pIC50 (Aurora A [1]) | pIC50 (Aurora B [2]) | pIC50 (KDR(VEGFR2) [3]) | pIC50 [4] | pIC50 (A549 Lung cancer cells) | pIC50 [5] | pIC50 [6] | pIC50 [8] | pIC50 (Hep3B liver cancer cells) | pIC50 (KG-1 Leukemic cells) | pIC50 (Kasumi-1 Leukemic cells) | pIC50 [9] | pIC50 [10] | pIC50 [11] | Structure (SMILES) | further results
9.31 | 8.30 | 8.92 | 7.46 | 6.49 | 6.77 | 6.74 | 6.40 | 7.30 | 8.30 | 7.32 | 6.51 | 6.52 | 6.02 | Cc1[nH]nc2c1N=C(c1ccccc1Cl)c1cnc(N3CCOCC3)cc1N2 [Compound 29, 4-(5-(2-chlorophenyl)-3-methyl-2,10-dihydropyrazolo[4,3-b]pyrido[4,3-e][1,4]diazepin-8-yl)morpholine] | pIC50 [7]: 6.95
8.32 | 7.82 | 8.07 | – | 6.24 | 6.29 | 6.58 | 6.14 | – | – | 7.10 | 6.58 | 6.21 | – | Cc1[nH]nc2c1N=C(c1ccccc1Cl)c1cnc(CN3CCOCC3)cc1N2 [Compound 35] | pIC50 [12]: 5.99
8.80 | 8.40 | 8.49 | 6.19 | 5.86 | 6.18 | 6.44 | 6.05 | 6.61 | 6.34 | 6.90 | 6.09 | 6.21 | 5.60 | CCc1cc2c(cn1)C(c1ccccc1Cl)=Nc1c(n[nH]c1C)N2 [Control drug 1-2, reference compound] | pIC50 [7]: 6.35; pIC50 [13]: 5.96; pIC50 [14]: 5.82; pIC50 [12]: 5.86
– | – | – | – | – | – | – | – | – | – | – | – | – | – | Cc1[nH]nc2c1N=C(c1ccccc1Cl)c1cnc(C3CC3)cc1N2 [Compound 2] | pIC50 (Aurora A [15]): > 8.52; pIC50 (Aurora B [16]): 8.40; pIC50 (KDR(VEGFR2) [17]): 6.23
8.32 | 8.24 | 8.80 | – | – | 6.38 | – | 6.27 | – | – | – | – | – | – | CCN1CCN(Cc2cc3c(cn2)C(c2ccccc2Cl)=Nc2c(n[nH]c2C)N3)CC1 [Compound 33] | pIC50 [13]: 6.15; pIC50 [14]: 6.06
8.89 | 8.12 | 8.64 | – | – | – | – | – | – | 7.35 | 7.09 | – | – | – | Cc1[nH]nc2c1N=C(c1ccccc1Cl)c1cnc(N3CCS(=O)(=O)CC3)cc1N2 [Compound 34] | –
8.92 | 8.15 | 9.04 | 7.47 | – | – | 6.84 | – | 7.17 | 8.30 | 7.72 | 6.12 | 6.36 | 6.19 | Cc1[nH]nc2c1N=C(c1ccccc1Cl)c1cnc(N3CCN(C)CC3)cc1N2 [Compound 22, 5-(2-chlorophenyl)-3-methyl-8-(4-methylpiperazin-1-yl)-2,10-dihydropyrazolo[4,3-b]pyrido[4,3-e][1,4]diazepine] | –
– | – | – | – | – | – | – | – | – | – | – | – | – | – | Cc1[nH]nc2c1N=C(c1ccccc1Cl)c1cnc(S(C)(=O)=O)cc1N2 [Compound 1] | pIC50 (Aurora A [15]): 7.92; pIC50 (Aurora B [16]): 7.52; pIC50 (KDR(VEGFR2) [17]): 5.78
